Experimental findings from ChEMBL document CHEMBL1201862, “PubChem BioAssay data set” (2004) are described below.

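Compound exposure: 48 hours, 5 concentrations, 96-well plates. GI50 is the concentration that inhibits growth by half.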 Active and inactive are the calls of the source. No stated cut-off is given here; in the data, active = GI50 up to about 1.1 µM and inactive = higher.

Some test systems named below: A498; A549; BT-549; CCRF-CEM; HOP-62; Hs-578T; LOX IMVI; MCF7; NCI-H522; NCI/ADR-RES; OVCAR-4; OVCAR-5; PC-3; UACC-257; T47D.
Common to all, as to assay: NCI anticancer screen, dose series, 48 h

Take `CC(C)=C[C@@H]1C[C@H](C)[C@H]2CC[C@H](C)[C@H]3C(=O)C(O)=C(C)C(=O)[C@]123`: the GI50 in the assay on A498 was > 100 µM (inactive); in the assay with A549, 57.8 µM (inactive); in the assay on BT-549 it was > 100 µM (inactive); in the assay on CCRF-CEM it was 99.1 µM (inactive); in the assay with HOP-62 it was > 100 µM (inactive); with Hs-578T, > 100 µM (inactive). Moreover, the GI50 in the assay with LOX IMVI is > 100 µM (inactive); in the assay with MCF7, > 100 µM (inactive); in the assay on NCI-H522, 48.1 µM (inactive); in the assay on NCI/ADR-RES, > 100 µM (inactive); in the assay on OVCAR-4, 90.8 µM (inactive); in the assay on OVCAR-5 it was > 100 µM (inactive). In addition, the GI50 with PC-3 is 27.4 µM (inactive); in the assay on UACC-257, > 100 µM (inactive).
`CC/C=C(\C(=C/CC)[N+](=O)[O-])[N+](=O)[O-]`: the GI50 in the assay on A549 was 74.6 µM (inactive); in the assay on BT-549, 18.1 µM (inactive); in the assay on CCRF-CEM, 8.22 µM (inactive); in the assay with HOP-62 it was 58.2 µM (inactive); in the assay with LOX IMVI it was 17.5 µM (inactive); in the assay on MCF7, 16.7 µM (inactive). Besides, the GI50 in the assay on NCI/ADR-RES was 20.7 µM (inactive); with OVCAR-4, 22.8 µM (inactive); with OVCAR-5, 13.4 µM (inactive); with PC-3, 33.1 µM (inactive); in the assay with T47D, 28.4 µM (inactive); in the assay on UACC-257, 17.1 µM (inactive).
In the case of `CC(C)c1nccn1Cc1ccc(Cl)cc1Cl`, the GI50 in the assay on A498 was 55.5 µM (inactive); in the assay on A549 it was 34.4 µM (inactive); in the assay on BT-549, 64.1 µM (inactive); in the assay with HOP-62 it was 66.7 µM (inactive); with LOX IMVI, 43.6 µM (inactive); in the assay on MCF7, 34.1 µM (inactive). In addition, the GI50 is 21.2 µM (inactive) in the assay on NCI-H522; 27 µM (inactive) with NCI/ADR-RES; 52.5 µM (inactive) in the assay with OVCAR-4; 27.7 µM (inactive) in the assay on OVCAR-5; 46.5 µM (inactive) with PC-3; 17.7 µM (inactive) with UACC-257.
As for `O=c1cnn(C/C=C\CO)c(=O)[nH]1`, the GI50 with A498, in the assay on A549, in the assay on CCRF-CEM, with HOP-62, in the assay with Hs-578T and in the assay on LOX IMVI was > 100 µM (inactive) throughout. Moreover, the GI50 with MCF7, with NCI-H522, in the assay on NCI/ADR-RES, with OVCAR-5, with PC-3 and in the assay with T47D was > 100 µM (inactive) in each case. Further, in the assay with UACC-257, the GI50 is > 100 µM (inactive).
For the compound `CSCCC(NC(=O)OCc1ccccc1)NC(=O)OCc1ccccc1`, the GI50 is > 100 µM (inactive) in the assay on A549; > 10 µM (inactive) with CCRF-CEM; > 100 µM (inactive) in the assay with HOP-62; > 100 µM (inactive) in the assay on Hs-578T; > 100 µM (inactive) in the assay with LOX IMVI; > 100 µM (inactive) in the assay on NCI-H522. Moreover, the GI50 is > 100 µM (inactive) in the assay with NCI/ADR-RES; > 100 µM (inactive) in the assay on OVCAR-4; > 100 µM (inactive) in the assay on OVCAR-5; > 100 µM (inactive) with PC-3; 59.8 µM (inactive) with T47D; > 100 µM (inactive) with UACC-257.
With `CCC1C(=O)C[C@H]2[C@@H]3C(O)CC4=CC(=O)CC[C@]4(C)[C@H]3CC[C@]12C` (stereo partly drawn), the GI50 in the assay with A498, in the assay with A549, in the assay with CCRF-CEM, in the assay on HOP-62, in the assay with Hs-578T and with LOX IMVI was > 50 µM (inactive) in each case. Further, the GI50 with MCF7, with NCI-H522, in the assay with NCI/ADR-RES, with OVCAR-4, in the assay with OVCAR-5 and in the assay on PC-3 was > 50 µM (inactive) throughout. In addition, the GI50 in the assay on T47D and in the assay with UACC-257 was > 50 µM (inactive) throughout.
For the compound `CSc1nc2c(c(=O)n1C)N=C(c1ccc(Cl)cc1)CC(c1ccccc1)N2` (stereo not drawn), the GI50 is 33 µM (inactive) with A498; 25.2 µM (inactive) in the assay on A549; 24.9 µM (inactive) in the assay with BT-549; 26 µM (inactive) with CCRF-CEM; 27.6 µM (inactive) in the assay on HOP-62; 20.6 µM (inactive) in the assay on LOX IMVI. Moreover, the GI50 in the assay with MCF7 is 14.2 µM (inactive); with NCI-H522 it was 17.6 µM (inactive); with NCI/ADR-RES it was 17.4 µM (inactive); in the assay on OVCAR-4, 6.84 µM (inactive); with OVCAR-5, 33.8 µM (inactive); in the assay with PC-3, 24.3 µM (inactive). Also, the GI50 in the assay with UACC-257 is 22.6 µM (inactive).
In the case of `C/C(CC(O)(C(F)(F)F)C(F)(F)F)=N/Nc1ccc([N+](=O)[O-])cc1[N+](=O)[O-]`, the GI50 in the assay on A498 was 2.39 µM (inactive); in the assay on A549, 2.54 µM (inactive); in the assay on CCRF-CEM, 3.41 µM (inactive); in the assay with HOP-62, 2.99 µM (inactive); with Hs-578T it was 2.81 µM (inactive); in the assay on LOX IMVI it was 3.3 µM (inactive). The GI50 with MCF7 is 2.97 µM (inactive); in the assay with NCI-H522, 2.07 µM (inactive); with NCI/ADR-RES, 2.85 µM (inactive); in the assay with OVCAR-4, 3.42 µM (inactive); in the assay on PC-3, 2.78 µM (inactive); with T47D it was 1.08 µM (active). In addition, the GI50 in the assay with UACC-257 is 2.87 µM (inactive).
`O=C1OC(c2ccccc2Br)=N/C1=C/c1ccccc1`: the GI50 with A498 was > 100 µM (inactive); in the assay on A549, 29.6 µM (inactive); in the assay on CCRF-CEM it was 35 µM (inactive); in the assay on HOP-62 it was 21.5 µM (inactive); with Hs-578T, 31.3 µM (inactive); in the assay on LOX IMVI it was 21.7 µM (inactive). Besides, the GI50 was 57.1 µM (inactive) with MCF7; 26 µM (inactive) in the assay on NCI-H522; 25.4 µM (inactive) in the assay with OVCAR-4; 40.2 µM (inactive) in the assay on OVCAR-5; > 100 µM (inactive) in the assay with PC-3; > 100 µM (inactive) in the assay with T47D. The GI50 in the assay on UACC-257 is > 100 µM (inactive).
Regarding `CC(CO)(CO)N1C(=O)C2C3C=CC(C3)C2C1=O` (stereo not drawn), the GI50 with A498, in the assay with A549, with CCRF-CEM, in the assay on HOP-62, in the assay with Hs-578T and in the assay on LOX IMVI was > 100 µM (inactive) throughout. Further, the GI50 with MCF7, with NCI-H522, with NCI/ADR-RES, in the assay with OVCAR-4, with OVCAR-5 and in the assay with PC-3 was > 100 µM (inactive) throughout. Further, the GI50 in the assay with T47D and in the assay with UACC-257 was > 100 µM (inactive) each time.
Consider `CCCc1[nH]c2ccccc2c1-c1c(CCC)[nH]c2ccccc12`, for which the GI50 in the assay with A498 was > 86.1 µM (inactive); in the assay with A549, 27.7 µM (inactive); in the assay with BT-549, 13.9 µM (inactive); with CCRF-CEM it was 8.26 µM (inactive); with HOP-62, 16.9 µM (inactive); in the assay with Hs-578T it was 6.95 µM (inactive). Besides, the GI50 in the assay on LOX IMVI is 4.35 µM (inactive); in the assay on MCF7, 4.66 µM (inactive); with NCI-H522, 17.1 µM (inactive); in the assay on NCI/ADR-RES, 10.1 µM (inactive); in the assay with OVCAR-4 it was 21.5 µM (inactive); in the assay on OVCAR-5, 16.9 µM (inactive). For the same compound, the GI50 with PC-3 was 5.42 µM (inactive); with UACC-257 it was 18.1 µM (inactive).
As for `Cc1ccc(S(=O)(=O)N(c2ccccc2F)C2CCCCC2O)cc1` (stereo not drawn), the GI50 is 38.1 µM (inactive) in the assay on A498; 35.2 µM (inactive) with A549; 14.6 µM (inactive) with BT-549; 56.9 µM (inactive) with CCRF-CEM; 96.2 µM (inactive) in the assay on HOP-62; 33 µM (inactive) with Hs-578T. Also, the GI50 in the assay on LOX IMVI is 38.8 µM (inactive); in the assay on MCF7, 21.7 µM (inactive); in the assay on NCI/ADR-RES, 42.4 µM (inactive); in the assay with OVCAR-4, 39.5 µM (inactive); with OVCAR-5 it was > 100 µM (inactive); in the assay on PC-3, 35.4 µM (inactive). In addition, in the assay on UACC-257, the GI50 is 0.214 µM (active).
As to `Cc1cccc(NC(=S)N/N=C2\C(=O)Nc3ccccc32)c1`, the GI50 with A498 is 29.7 µM (inactive); with A549, 59.4 µM (inactive); with CCRF-CEM, 55 µM (inactive); in the assay on HOP-62 it was 62.7 µM (inactive); in the assay with Hs-578T, > 100 µM (inactive); with LOX IMVI, 51.4 µM (inactive). Moreover, the GI50 in the assay on MCF7 is > 100 µM (inactive); in the assay on NCI-H522 it was > 100 µM (inactive); in the assay with NCI/ADR-RES it was 29.9 µM (inactive); in the assay with OVCAR-4, 34.9 µM (inactive); in the assay on OVCAR-5 it was > 100 µM (inactive); with PC-3, 68.4 µM (inactive). In addition, the GI50 in the assay with T47D and with UACC-257 was > 100 µM (inactive) throughout.
For the compound `COC(=O)C1(F)C(=O)NC(=O)NC1O` (stereo not drawn), the GI50 in the assay with A498 is > 100 µM (inactive); in the assay on A549 it was 90.8 µM (inactive); with CCRF-CEM, > 89.1 µM (inactive); with HOP-62, > 100 µM (inactive); with Hs-578T, > 100 µM (inactive); in the assay on LOX IMVI, > 100 µM (inactive). Moreover, the GI50 in the assay on MCF7 is 10.7 µM (inactive); in the assay with NCI-H522, > 100 µM (inactive); in the assay on NCI/ADR-RES, > 100 µM (inactive); with OVCAR-4, 80 µM (inactive); with OVCAR-5, > 100 µM (inactive); in the assay with PC-3, 50.8 µM (inactive). The GI50 in the assay with T47D and in the assay on UACC-257 was > 100 µM (inactive) each time.
As to `CC1C2CC(C(C3C(=O)C4CC3C(C)(C)C4C)C2=O)C1(C)C` (stereo not drawn), the GI50 with A498, in the assay on A549, in the assay on BT-549, in the assay on CCRF-CEM, in the assay on HOP-62 and in the assay with Hs-578T was > 100 µM (inactive) each time. The GI50 with MCF7, with NCI-H522, with OVCAR-4, with OVCAR-5, with PC-3 and with T47D was > 100 µM (inactive) throughout. The GI50 in the assay with UACC-257 was > 100 µM (inactive).
